This note sets out measurements from patent EP1087941B9, “THIOLESTERS AND USES THEREOF” (THE UNITED STATES OF AMERICA, as represented by THE …, priority 1998, dated 1999).

One test relates to HIV-1 virus. In words: Virus inactivation determined by PCR assay for intracellularly synthesized viral RNA. In kind it is cell-based. An excerpt: The thiolester-treated virions can also be tested for infectivity. The virions are suspended in media (rather than solubilized) and added to target cells. The cultures are then examined to determine whether the virions are still active. To determine whether the treated virus particles are active, the cells are monitored for the presence of intracellularly-synthesized viral RNA using, for example, the polymerase chain reaction (PCR) (Rice (1993) Proc. Natl. Acad. Sci. USA 90:9721; Turpin (1996) J. Virol. 70:6180). Alternatively, cytoprotection assays can be used (Weislow (1993) J. Natl. Cancer Inst. 81:577).
An example of a compound which can be used as a control in the gel mobility shift assay is azodicarbonamide (ADA), a compound which is commercially available from the Aldrich Chemical Company (Milwaukee, WI).

The target of test [1] is T1, Virion-associated NCp7 proteins from cell-free HIV-1MN (Human immunodeficiency virus type 1 group M subtype B, UniProt P05888).
T1 construct: an attack on the mature NCp7 retroviral zinc fingers in the cell-free virus; endogenous in cells
Put plainly: Intravirion NCp7 cross-linking, non-reducing Western blotting. How it is done:
The interaction of zinc finger inhibitors, such as the thiolesters of the invention, with cell-free virus can result in modification of intravirion NCp7 protein and loss of infectivity. Virion-associated NCp7 proteins from cell-free HIV-1MN were treated with thiolester compounds 44 and 45. They were also evaluated by non-reducing Western blotting using HIV-1 NCp7-specific antibodies. […] Cross-linking by compound 45 was due to formation of intermolecular disulfide bonds because reduction with 2-mercaptoethanol (β-ME) completely reversed the gel retardation.
Virion cross linking was performed as described by Rice (1995) Science 270:1194-1197 and Turpin (1997) Antiviral Chem. Chemother. 8:60-67. Briefly, highly purified HIV-1 MN (11.8 µg total protein) was incubated for 2 hour with concentrations of compound. Virions were concentrated and residual compound was removed by centrifugation (18,000 x g, 1 h, 4°C). The viral pellet was solubilized in 0.5 M Tris-HCl,(pH 6.8), 50% glycerol, 8% SDS and 0.4% bromophenol blue and proteins resolved by Western blotting. Western blotting to detect the expression of HIV-1 proteins in U1 cells or virus pellets for virion cross-linking experiments was carried out as described by Turpin (1996) J. Virol. 70:6180-6189. Briefly, 50 µg of total cellular protein for U1 experiments or the total virion pellet (11.8 µg total viral protein) for NCp7 cross linking studies was resolved on 4 to 20% polyacrylamide gels in SDS with Tris-Glycine (Novex, San Diego CA). Samples for reduced gels were boiled for 5 min in the presence of 5% β-ME prior to loading. Resolved proteins were electroblotted on to polyvinylidene difluoride (PVDF) membranes, and HIV-1 specific proteins were detected using a mixture of goat anti- HIV-1 NCp7 and p24 or anti-NCp7 for virion proteins alone (a kind gift of L. E. Henderson, AIDS Vaccine Program NCI-FCRDC, Frederick, MD). Western blots were developed using standard chemiluminescence methodologies, as produced and described by Dupont-NEN, Wilmington, DE.
Purified concentrated retrovirus and antisera against the purified NC protein of the virus can be used to test the ability of a specific compound to penetrate the virus and react with the NC protein by forming disulfide complexes in the core of the virus. Compound are mixed with the whole retrovirus under reaction conditions appropriate for the compound. The virus is then removed from the reagent by centrifugation and disrupted in, e.g., standard SDS-PAGE sample buffer with (reduced) and without (non-reduced) 2-mercaptoethanol. […] Thus, compounds of interest (i.e., those which cause cross-linking), including the thiolesters of the invention, reduce the amount of monomeric zinc finger protein detected.

Consider `NC(=O)N=NC(N)=O` [ADA, azodicarbonamide], for which the “inactivation of HIV-1 virus” value in the test with HIV-1 virus is reported as “inactivates HIV-1 virus”.

Regarding `Cc1cn([C@H]2C[C@H](N=[N+]=[N-])[C@@H](CO)O2)c(=O)[nH]c1=O` [AZT, 3'-Azido-2'-3'-dideoxythymidine, reference compound], the “intravirion NCp7 cross-linking” value in test [1] is listed as “failed to cross-link NCp7”.
